Results on 21 molecules are retold here after publication PMC10623575, “Discovery of Potent and Selective CB2 Agonists Utilizing a Function-Based Computational Screening Protocol” (ACS Chemical Neuroscience, 2023).

In experiment [1] the target is T1, CB2 receptor (Homo sapiens, UniProt P34972).
T1 construct: expressed in transfected cells
Briefly: Calcium mobilization assay, agonist mode, CHO expressing CB2 and Gα16. The experiment is classed as cell-based. The conditions noted are these: for SI, selectivity index for the CB2, SI = EC50(CB1)/EC50(CB2): agonist mode; for CB1 and CB2 biological activity (in words): CB1 and CB2 calcium mobilization assays, up to 10 μM. On the procedure:
(§1) Chinese hamster ovarian (CHO) cells collected from the American Type Culture Collection were maintained in Ham’s F-12K (Kaighn’s) supplemented with 100 mg/L streptomycin, 100 mg/L penicillin, and 10% fetal bovine serum (FBS) in a humidified atmosphere of 5% CO2 at 37 °C. CHO cells were co-transfected with plasmids encoding CB1 or CB2 and Gα16 by electroporation. To establish stable cell lines, transfected cells were seeded on 10 cm dishes with 40 μg/mL blasticidin and 1 mg/mL G418 in culture medium after 24 h. The selection medium was substituted once every 3 days until colonies formed. A solitary colony was obtained, propagated, and assessed using a calcium mobilization assay to verify the function and expression of the transfected genes.
(§2) 3 × 10^4 cells/well were employed to seed cells onto 96-well plates, which were subsequently incubated throughout the night. […] For antagonist mode, the extra dye was washed out and 50 μL of HBSS with test compounds, DMSO (negative control), or AM630 (positive control) was introduced. […] To be noticed, each experiment has been independently replicated three times, with three repetitions and eight gradients each time.
(§3) The collected data were processed with GraphPad Prism software (GraphPad). […] Means ± SEM were computed utilizing this software. The analyses were evaluated by the Student t test. When the p value is smaller than 0.05, the result is statistically significant.

Experiment [2] has as its target CB1 receptor (Homo sapiens, UniProt P21554). Briefly: Calcium mobilization assay, agonist mode, CHO expressing CB1 and Gα16. Type of experiment: cell-based. On the procedure:
as §1, §2, §3
A general note: A change in cytosolic calcium serves as a functional read-out for many receptors and channels.

Setting [3] is: agonist activity, CHO expressing CB2, three independent assays, mean ± SEM, read-out: CB2 EC50.
The mark [4] stands for this setting: single independent experiment, replicate 1, read-out: CB2 agonist(μM) replicate 1.
The mark [5] stands for this setting: single independent experiment, replicate 2, read-out: CB2 agonist(μM) replicate 2.
The mark [6] stands for this setting: single independent experiment, replicate 3, read-out: CB2 agonist(μM) replicate3.
Setting [7] is: agonist activity, CHO expressing CB1, mean ± SEM, read-out: CB1 EC50.

SMILES strings stand for the structures. Where two headings read alike, the source gives them in different places. Where only a bound is given, the exact number is not on record here.

Chain of CB1 receptor (P21554 whole entry): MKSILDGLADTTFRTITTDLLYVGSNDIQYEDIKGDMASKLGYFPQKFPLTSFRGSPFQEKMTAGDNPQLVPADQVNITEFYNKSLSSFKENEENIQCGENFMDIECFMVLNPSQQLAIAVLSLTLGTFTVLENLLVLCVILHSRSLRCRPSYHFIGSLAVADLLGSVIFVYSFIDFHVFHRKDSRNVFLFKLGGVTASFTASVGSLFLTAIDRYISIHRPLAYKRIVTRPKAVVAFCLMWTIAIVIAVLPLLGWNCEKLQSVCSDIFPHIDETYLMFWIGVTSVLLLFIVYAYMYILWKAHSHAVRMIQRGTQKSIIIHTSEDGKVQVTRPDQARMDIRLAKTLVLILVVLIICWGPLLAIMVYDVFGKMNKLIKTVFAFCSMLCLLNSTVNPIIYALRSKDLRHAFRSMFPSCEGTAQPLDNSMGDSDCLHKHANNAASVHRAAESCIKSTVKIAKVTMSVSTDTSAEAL
T1 sequence (P34972 whole entry): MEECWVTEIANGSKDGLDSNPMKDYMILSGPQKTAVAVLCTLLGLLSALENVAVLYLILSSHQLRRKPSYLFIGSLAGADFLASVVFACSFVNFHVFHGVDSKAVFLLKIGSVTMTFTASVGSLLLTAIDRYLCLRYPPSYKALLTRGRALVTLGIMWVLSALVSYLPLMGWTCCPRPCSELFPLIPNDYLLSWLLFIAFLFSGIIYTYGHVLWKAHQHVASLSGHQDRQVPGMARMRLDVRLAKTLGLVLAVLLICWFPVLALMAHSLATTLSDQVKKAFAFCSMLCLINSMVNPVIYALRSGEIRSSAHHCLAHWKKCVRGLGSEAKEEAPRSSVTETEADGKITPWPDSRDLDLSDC

`CC(C)N1C(=O)SC(=Cc2ccccc2OCc2ccccc2C#N)C1=O` [Compound 1, 2-((2-((3-Isopropyl-2,4-dioxothiazolidin-5-ylidene)methyl)phenoxy)methyl) Benzonitrile]: the “response against CHO–CB2 by calcium assay” value in experiment [1] (10 μM) was > 40%. In addition, the EC50 was 3.12 ± 2.22 µM in experiment [1] (setting [3]); 1.75 µM in experiment [1] (setting [4]); 7.47 µM in experiment [1] (setting [5]); 0.139 µM in experiment [1] (setting [6]); > 10 µM in experiment [2] (setting [7]). The “SI, selectivity index for the CB2, SI = EC50(CB1)/EC50(CB2)” value (shortened to “SI, selectivity index for the CB2”) in experiment [1] was >3. In addition, the “bioactivity against CB1 (in words)” value in experiment [2] (10 μM) is reported as “no bioactivity”.
Turning to `CC(C)CN1C(=O)SC(=Cc2ccccc2OCc2ccccc2C#N)C1=O` [Compound 2, 2-((2-((3-Isobutyl-2,4-dioxothiazolidin-5-ylidene)methyl)phenoxy)methyl) Benzonitrile], the EC50 in experiment [1] (setting [3]) was 3.22 ± 2.67 µM; in experiment [1] (setting [4]), 0.43 µM; in experiment [1] (setting [5]) it was 8.56 µM; in experiment [1] (setting [6]), 0.68 µM; in experiment [2] (setting [7]), > 10 µM. Also, in experiment [1], the “SI, selectivity index for the CB2” value is given as >3.
Take `CCCN1C(=O)SC(=Cc2ccccc2OCc2ccccc2C#N)C1=O` [Compound 3, 2-((2-((2,4-Dioxo-3-propylthiazolidin-5-ylidene)methyl)phenoxy)methyl) Benzo Nitrile]: the EC50 in experiment [1] (setting [3]) and in experiment [2] (setting [7]) was > 10 µM each time.
In the case of `CCCCN1C(=O)SC(=Cc2ccccc2OCc2ccccc2C#N)C1=O` [Compound 4, 2-((2-((3-Butyl-2,4-dioxothiazolidin-5-ylidene)methyl)phenoxy)methyl)benzo Nitrile], the EC50 in experiment [1] (setting [3]) and in experiment [2] (setting [7]) was > 10 µM in each case.
`N#Cc1ccccc1COc1ccccc1C=C1SC(=O)N(C2CCCC2)C1=O` [Compound 5, 2-((2-((3-Cyclopentyl-2,4-dioxothiazolidin-5-ylidene)methyl)phenoxy)methyl) Benzonitrile]: the EC50 in experiment [1] (setting [3]) was 2.26 ± 0.48 µM; in experiment [1] (setting [4]), 1.67 µM; in experiment [1] (setting [5]), 1.92 µM; in experiment [1] (setting [6]), 3.2 µM; in experiment [2] (setting [7]), > 10 µM. Also, the “SI, selectivity index for the CB2” value in experiment [1] is >4.
For `CC(C)N1C(=O)SC(=Cc2ccccc2OCc2ccccc2F)C1=O` [Compound 6, 5-(2-((2-Fluorobenzyl)oxy)benzylidene)-3-isopropylthiazolidine-2,4-dione], the EC50 is 0.37 ± 0.26 µM in experiment [1] (setting [3]); 0.188 µM in experiment [1] (setting [4]); 0.026 µM in experiment [1] (setting [5]); 0.886 µM in experiment [1] (setting [6]); > 10 µM in experiment [2] (setting [7]). In experiment [1], the “SI, selectivity index for the CB2” value is >27.
Turning to `CC(C)N1C(=O)SC(=Cc2ccccc2OCc2cccc(Br)c2)C1=O` [Compound 7, 5-(2-((3-Bromobenzyl)oxy)benzylidene)-3-isopropylthiazolidine-2,4-dione], in experiment [1], the “CB1 and CB2 biological activity (in words)” value is on record as “do not show biological activities”. Further, the EC50 in experiment [1] (setting [3]) and in experiment [2] (setting [7]) was > 10 µM throughout.
For the molecule `CC(C)N1C(=O)SC(=Cc2ccccc2OCCN2CCOCC2)C1=O` [Compound 8, 3-Isopropyl-5-(2-(2-morpholinoethoxy)benzylidene) Thiazolidine-2,4-dione], the EC50 was 0.09 ± 0.07 µM in experiment [1] (CB2 EC50, agonist activity, CHO expressing CB2, three independent assays, mean ± SEM); 0.227 µM in experiment [1] (CB2 agonist(μM) replicate 1, single independent experiment, replicate 1); 0.026 µM in experiment [1] (CB2 agonist(μM) replicate 2, single independent experiment, replicate 2); 0.022 µM in experiment [1] (CB2 agonist(μM) replicate3, single independent experiment, replicate 3); 0.75 ± 0.48 µM in experiment [2] (CB1 EC50, agonist activity, CHO expressing CB1, mean ± SEM); 0.455 µM in experiment [2] (CB1 agonist(μM) replicate 1, single independent experiment, replicate 1). In addition, the EC50 in experiment [2] (CB1 agonist(μM) replicate 2, single independent experiment, replicate 2) came out at 0.109 µM; in experiment [2] (CB1 agonist(μM) replicate3, single independent experiment, replicate 3), 1.7 µM. The “SI, selectivity index for the CB2” value in experiment [1] is 8.
Regarding `COc1cc(COc2ccccc2C=C2SC(=O)N(C(C)C)C2=O)cc(OC)c1` [Compound 9, 5-(2-((3,5-Dimethoxybenzyl)oxy)benzylidene)-3-isopropylthiazolidine-2,4-dione], in experiment [1], the “CB1 and CB2 biological activity (in words)” value is listed as “do not show biological activities”. Moreover, the EC50 in experiment [1] (setting [3]) and in experiment [2] (setting [7]) was > 10 µM each time.
For the molecule `CC(C)CN1C(=O)SC(=Cc2ccccc2OCc2ccccc2F)C1=O` [Compound 10, 5-(2-((2-Fluorobenzyl)oxy)benzylidene)-3-isobutylthiazolidine-2,4-dione], the EC50 in experiment [1] (setting [3]) was 1.6 ± 0.21 µM; in experiment [1] (setting [4]) it was 1.78 µM; in experiment [1] (setting [5]), 1.18 µM; in experiment [1] (setting [6]), 1.83 µM; in experiment [2] (setting [7]) it was > 10 µM. Also, in experiment [1], the “SI, selectivity index for the CB2” value is >6.
As to `COc1cc(COc2ccccc2C=C2SC(=O)N(CC(C)C)C2=O)cc(OC)c1` [Compound 11, 5-(2-((3,5-Dimethoxybenzyl)oxy)benzylidene)-3-isobutylthiazolidine-2,4-dione], the EC50 in experiment [1] (setting [3]) and in experiment [2] (setting [7]) was > 10 µM each time.
On to `O=C1SC(=Cc2ccccc2OCc2ccccc2F)C(=O)N1C1CCCC1` [Compound 12, 3-Cyclopentyl-5-(2-((2-fluorobenzyl)oxy)benzylidene)thiazolidine-2,4-dione], for which the “CB1 and CB2 biological activity (in words)” value in experiment [1] is “no bioactivity”. Further, the EC50 in experiment [1] (setting [3]) and in experiment [2] (setting [7]) was > 10 µM throughout.
For the molecule `CC(C)CN1C(=O)SC(=Cc2ccccc2OC(=O)c2ccccc2F)C1=O` [Compound 13, 2-((3-Isobutyl-2,4-dioxothiazolidin-5-ylidene)methyl)phenyl 2-Fluorobenzoate], the EC50 was 1.78 ± 0.25 µM in experiment [1] (setting [3]); 1.66 µM in experiment [1] (setting [4]); 2.26 µM in experiment [1] (setting [5]); 1.44 µM in experiment [1] (setting [6]); > 10 µM in experiment [2] (setting [7]). Moreover, the “SI, selectivity index for the CB2” value in experiment [1] was >5.
In the case of `CCCCCCCC(=O)Oc1ccccc1C=C1SC(=O)N(CC(C)C)C1=O` [Compound 14, 2-((3-Isobutyl-2,4-dioxothiazolidin-5-ylidene)methyl) Phenyl Octanoate], the EC50 in experiment [1] (setting [3]) and in experiment [2] (setting [7]) was > 10 µM each time.
`CC(C)CN1C(=O)SC(=Cc2ccccc2OC(=O)N2CCOCC2)C1=O` [Compound 15, 2-((3-Isobutyl-2,4-dioxothiazolidin-5-ylidene)methyl)phenyl Morpholine-4-carboxylate]: the EC50 is 1.58 ± 1.12 µM in experiment [1] (setting [3]); 0.486 µM in experiment [1] (setting [4]); 3.82 µM in experiment [1] (setting [5]); 0.43 µM in experiment [1] (setting [6]); > 10 µM in experiment [2] (setting [7]). Further, the “SI, selectivity index for the CB2” value in experiment [1] is >6.
Take `CC(C)CN1C(=O)S/C(=C\c2ccccc2OC(=O)C(C)(C)CCl)C1=O` [Compound 16, 2-((3-Isobutyl-2,4-dioxothiazolidin-5-ylidene)methyl) Phenyl 3-Chloro-2,2-dimethylpropanoate]: the EC50 in experiment [1] (setting [3]) is 1.51 ± 0.29 µM; in experiment [1] (setting [4]) it was 0.949 µM; in experiment [1] (setting [5]) it was 1.89 µM; in experiment [1] (setting [6]), 1.69 µM; in experiment [2] (setting [7]) it was > 10 µM. For the same molecule, the “SI, selectivity index for the CB2” value in experiment [1] was >6.
`CC(C)N1C(=O)SC(=Cc2ccccc2OC(=O)N2CCOCC2)C1=O` [Compound 17, 2-((3-Isopropyl-2,4-dioxothiazolidin-5-ylidene)methyl)phenyl Morpholine-4-carboxylate]: the EC50 in experiment [1] (setting [3]) was 0.66 ± 0.34 µM; in experiment [1] (setting [4]), 0.166 µM; in experiment [1] (setting [5]), 1.31 µM; in experiment [1] (setting [6]) it was 0.489 µM; in experiment [2] (setting [7]) it was > 10 µM. Besides, the “SI, selectivity index for the CB2” value in experiment [1] is recorded as >15.
Consider `CC(C)N1C(=O)S/C(=C\c2ccccc2OC(=O)c2ccccc2F)C1=O` [Compound 18, 2-((3-Isopropyl-2,4-dioxothiazolidin-5-ylidene)methyl) Phenyl 2-Fluoro Benzoate], for which the EC50 in experiment [1] (setting [3]) is 3.64 ± 1.14 µM; in experiment [1] (setting [4]), 4.96 µM; in experiment [1] (setting [5]), 4.58 µM; in experiment [1] (setting [6]), 1.38 µM; in experiment [2] (setting [7]), > 10 µM. In experiment [1], the “SI, selectivity index for the CB2” value is >2.
Turning to `CC(C)N1C(=O)S/C(=C\c2ccccc2OC(=O)C23CC4CC(CC(C4)C2)C3)C1=O` [Compound 19, 2-((3-Isopropyl-2,4-dioxothiazolidin-5-ylidene) Methyl) Phenyl (3r,5r,7r)-Adamantane-1-carboxylate], the EC50 in experiment [1] (setting [3]) and in experiment [2] (setting [7]) was > 10 µM throughout.
Consider `CCCCCCCC(=O)Oc1ccccc1/C=C1\SC(=O)N(C(C)C)C1=O` [Compound 20, 2-((3-Isopropyl-2,4-dioxothiazolidin-5-ylidene) Methyl) Phenyl Octanoate], for which the EC50 in experiment [1] (setting [3]) and in experiment [2] (setting [7]) was > 10 µM in each case.
On to `CC(C)N1C(=O)SC(=Cc2ccccc2OC(=O)C(C)(C)CCl)C1=O` [Compound 21, 2-((3-Isopropyl-2,4-dioxothiazolidin-5-ylidene)methyl)phenyl 3-Chloro-2,2-dimethylpropanoate], for which the EC50 in experiment [1] (setting [3]) was 2.33 ± 0.45 µM; in experiment [1] (setting [4]), 1.46 µM; in experiment [1] (setting [5]), 2.61 µM; in experiment [1] (setting [6]) it was 2.93 µM; in experiment [2] (setting [7]) it was > 10 µM. Further, the “SI, selectivity index for the CB2” value in experiment [1] is on record as >4.
